Series [1] can be described thus: Brain tissue binding assay (dialysis). Format: in vitro ADME. The method, then:
(§1) Brain tissue was homogenized in PBS (pH 7.4) (1: 3 weight(mg)/volume(µL)) and the protein concentration was determined using the Micro BCA™ Protein Assay Kit (Thermo Fisher Scientific, Cat#23235). Brain homogenate was clarified and diluted to 20 mg/mL in PBS (pH 7.4). Either brain homogenate or plasma was and added to Slide-A-Lyzer™ MINI Dialysis Devices, 10 K MWCO dialysis cups (Thermo Fisher Scientific, Cat#PI88401) in a 48-well plate containing PBS (500 µL; pH 7.4). 1 µL of 1 mM compound was added to the brain homogenate (Final Concentration: 2 µM compound, 0.5% DMSO) and incubated on a rocker for 4.5 hours at 37 °C. 50 µL of brain homogenate or plasma (within the dialysis cup) and PBS (within the 48-well plate) were transferred to new microcentrifuge tubes containing 400 µL of quenching reagent (100% Acetonitrile) containing internal standard. Solutions were clarified by centrifugation (16,000 x g, 5 min), and the supernatants were transferred to new tubes and lyophilized. Samples were reconstituted in 100 µL of 50/50/0.1 (Water/Acetonitrile/Formic Acid) prior to analysis via liquid chromatography-tandem mass spectrometry (LC-MS/MS). The % of the unbound drug (fu,bound) was calculated using the following equation:
(§2) % Bound = [1− (PBS chromatographic peak area/ brain homogenate or plasma chromatographic peak area)] x 100

Series [2] can be described thus: Plasma binding assay (dialysis). Format: in vitro ADME. The following applies: dialysis 4.5 hours, 37 °C. The method, then: as §1, §2
Series [3] is described as follows: In-vivo pharmacokinetics, brain levels after oral administration. The following applies: mice. The method, then: Following oral administration of compound, mice brain tissue and plasma were collected after euthanasia and perfusion at 1, 2, 4, 6 and 8 h. All animals will be euthanized by ketamine/xylazine injection to allow cardiac puncture and saline perfusion, which is consistent with recommendations of the AVMA Panel on Euthanasia. Brain tissue were homogenized in a bead beater using 5 volumes of ice-cold 80% acetonitrile (1/5; mg of brain/µL of 80% ACN). Plasma analytes were extracted using 4 volumes of ice-cold acetonitrile (1/4; µL of plasma/µL of ACN). Solutions were clarified by centrifugation (16,000 x g, 5 min) and the supernatants were transferred to new tubes and lyophilized. Samples were reconstituted in 100 µL of 50/50/0.1 (Water/Acetonitrile/Formic Acid) prior to analysis via liquid chromatography-tandem mass spectrometry (LC-MS/MS). An internal standard (IS) was added to every sample to account for compound loss during sample processing. Standards were made in drug naïve plasma and brain lysates with increasing amounts of analyte (S1,S2: 0 pmol/ S3,S4: 1 pmol/ S5,S6: 10 pmol/ S7,S8: 100 pmol, S9,S10: 1000 pmol). The standard curve was made by plotting the known amount of analyte per standard vs. the ratio of measured chromatographic peak areas corresponding to the analyte over that of the IS (analyte/IS). The trendline equation was then used to calculate the absolute concentrations of each compound in plasma and brain tissue.
Analysis of compound levels was done at the UCLA Pasarow Mass Spectrometry Lab (PMSL; Julian Whitelegge, Ph.D., Director). A targeted LC-MS/MS assay was developed for each compound using the multiple reaction monitoring (MRM) acquisition method on a 6460 triple quadrupole mass spectrometer (Agilent Technologies) coupled to a 1290 Infinity HPLC system (Agilent Technologies) with a Phenomenex analytical column (Kinetex 1.7 µm C18 100 Å 100 ×2.1 mm). The HPLC method utilized a mixture of solvent A ([…]) and solvent B ([…]) and a gradient was use for the elution of the compounds (min/%B: 0/1, 3/1, 19/99, 20/1, 30/1). Two fragment ions originating from each compound were monitored at specific LC retention times to ensure specificity and accurate quantification in the complex biological samples. The normalized chromatographic peak areas were determined by taking the ratio of measured chromatographic peak areas corresponding to each compound over that of the internal standard (Analyte/IS).

Series [4] in a line: Blood-Brain Barrier (BBB) permeability assay (IAM column, Pm). Format: in vitro ADME. As to conditions: pH 7.4; Pm > 1.0 = CNS+. The method, then:
A liquid chromatography-ultraviolet/visible spectroscopy (LC-UV/Vis) assay was performed on a 1290 Infinity HPLC system (Agilent Technologies) with an HPLC column containing immobilized phosphatidylcholine (IAM.PC.DD, Regis Technologies, Cat#774011, 5 µm 300 Å 100 ×4.6 mm). The HPLC method was a mixture of 6.7 mM phosphate buffer saline (pH 7.4; solvent A) and acetonitrile (solvent B), and a gradient was used for the elution of the compounds (min/%B: 0/20, 20/60, 21/20, 30/20). The retention time of the compound (tr) and void volume time of the column (t0) were recorded. Blood-brain barrier (BBB) permeability (Pm) was calculated using the following equations as described by Yoon et al. (10.1177/1087057105281656):
KIAM = (tr − t0) / t0; Pm = (KIAM / MW^4) x 10^10
Compounds with a Pm > 1.0 were determined to be BBB permeable (CNS + ) at pH 7.

The target of the next series is BRD4 (Homo sapiens, UniProt O60885). The experiment in a line: BRD4 inhibition assay. Format: biochemical.
The target of another series is BRD2 (Homo sapiens, UniProt P25440). The experiment in a line: BRD2 inhibition assay. Format: biochemical.
Sequence of BRD2 (P25440 whole entry): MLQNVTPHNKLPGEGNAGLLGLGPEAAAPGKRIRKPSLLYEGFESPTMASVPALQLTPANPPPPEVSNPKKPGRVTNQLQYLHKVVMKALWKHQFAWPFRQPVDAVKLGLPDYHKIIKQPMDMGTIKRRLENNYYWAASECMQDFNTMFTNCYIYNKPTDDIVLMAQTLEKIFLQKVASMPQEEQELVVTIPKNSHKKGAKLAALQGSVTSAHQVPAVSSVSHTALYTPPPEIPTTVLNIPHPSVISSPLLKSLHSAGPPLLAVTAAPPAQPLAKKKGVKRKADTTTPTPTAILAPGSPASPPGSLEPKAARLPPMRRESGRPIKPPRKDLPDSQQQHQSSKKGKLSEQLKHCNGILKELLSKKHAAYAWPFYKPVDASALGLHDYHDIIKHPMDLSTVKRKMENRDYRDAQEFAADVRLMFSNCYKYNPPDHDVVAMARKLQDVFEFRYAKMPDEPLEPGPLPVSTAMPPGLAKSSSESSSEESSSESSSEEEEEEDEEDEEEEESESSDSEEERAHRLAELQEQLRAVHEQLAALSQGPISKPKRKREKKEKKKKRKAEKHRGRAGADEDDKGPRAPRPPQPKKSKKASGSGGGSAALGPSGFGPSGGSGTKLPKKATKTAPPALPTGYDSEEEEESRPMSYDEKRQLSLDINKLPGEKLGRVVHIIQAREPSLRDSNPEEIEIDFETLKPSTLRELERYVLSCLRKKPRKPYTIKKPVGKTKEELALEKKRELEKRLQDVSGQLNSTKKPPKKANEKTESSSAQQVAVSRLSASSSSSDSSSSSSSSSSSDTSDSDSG
[5] abbreviates: brain homogenate 20 mg/mL, 2 µM compound, dialysis 4.5 hours, 37 °C.

Structures are written as SMILES. pIC50: −log10 of the molar value. Read-outs that look alike come from different tables or passages of the source.

For orientation: pIC50 means the negative decadic logarithm of the IC50, by convention in mol/L. Low values mean a large IC50, high ones a small IC50.

Consider `Cc1sc2c(c1C)C(c1ccc(Cl)cc1)=N[C@@H](CC(=O)OC1COC1)c1nnc(C)n1-2` [DDL-356], for which the “Brain Tissue Binding” value in series [1] (setting [5]) is reported as 57 % bound. Also, the “Plasma Binding” value in series [2] is reported as 79 % bound. Also, the “unbound brain concentration versus sCLU EC50” value in series [3] (oral 3, 10 or 30 mg/kg (Fig. S6)) was “reaches higher concentrations of unbound drug in the brain above its sCLU EC50 at lower doses”. Also, in series [4], the “PAMPA Pm” value is listed as 0.96. In addition, the figures for the pIC50 at BRD4 and against BRD2 were 7.64 and 6.80, respectively.
As to `Cc1sc2c(c1C)C(c1ccc(Cl)cc1)=N[C@@H](CC(=O)OC1CC1)c1nnc(C)n1-2` [DDL-357], the Brain Tissue Binding in series [1] is given as 75.3%; in series [1] (setting [5]) it was 75 % bound. In series [2], the “Plasma Binding” value is reported as 88 % bound. For the same compound, the “unbound brain concentration versus sCLU EC50” value is “below the sCLU EC50” in series [3] (oral 3 mg/kg, one hour post administration) and “below the sCLU EC50” in series [3] (oral 10 mg/kg, one hour post administration). Moreover, the “maximum brain concentration (total)” value in series [3] (oral 30 mg/kg, one hour after administration) stood at 1850 nM. For the same compound, the concentration at 1 h in series [3] (mouse, oral 30 mg/kg, 1 h, from total brain level and brain tissue binding 75.3%, read-out: unbound brain concentration) stood at 457 nM. For the same compound, the “PAMPA Pm” value in series [4] is 1.66. Further, the pIC50 on BRD4 was 7.70; on BRD2, 6.79.

The values are drawn from article PMC12048343, “Discovery of a small molecule secreted clusterin enhancer that improves memory in Alzheimer’s disease mice” (npj Drug Discovery, 2025).
